Reference: US5039665A, “Use of fructose-1,6-diphosphate for treating myocardial infarction” (priority 1990, dated 1991)
“Also recorded” adds a separate entry of the source.

Legend:
[1] = system: dogs given potassium cyanide; assay: potassium cyanide poisoning in dogs; format: in vivo, dog; details: 2 mg/kg IV potassium cyanide; 0.5 gm/kg over 30 minutes
[2] = system: hearts of mongrel dogs subjected to normothermic arrest; assay: global ischemia on cardiopulmonary bypass, normothermic arrest for one hour; format: in vivo, dog
Experimental: To evaluate the effect of FDP on global ischemia, 14 mongrel dogs were placed on cardiopulmonary bypass and their hearts were subjected to normothermic arrest for one hour. Seven animals had 50 ml. of 5% glucose in 0.9% NaCl infused into the base of the aorta at 0 minutes, 20 minutes and 40 minutes following cross-clamping and, systemically, during reperfusion. The remaining 7 animals were treated identically except that 50 mg. of FDP was given instead of glucose and 2mg/kg/minute was infused systemically during reperfusion. Hemodynamic measurements were taken before ischemia and at 15 and 30 minutes following reperfusion using an isovolumetric technique.

erythrocytes = assay: incubation of erythrocytes: ATP and 2-3 DPG content; format: cell-based
Source text: To allow for a broader and more complete interpretation of the results, a small paragraph will be devoted to the ability of FDP to cross the cellular membranes.

[3] = system: dogs subjected to endotoxin shock; assay: endotoxin shock in dogs (E. coli endotoxin) with fluid support; format: in vivo, dog
Experimental: The study was also conducted to determine whether IV administration of FDP to dogs subjected to lethal doses of endotoxin will prevent damage to the intestinal mucosa, and death. The rationale was that endotoxin per se and its deleterious effect on hemolate phase acidosis inhibits glycolysis by inactivation of the rate limiting enzyme phosphofructokinase.
Endotoxin shock was produced in digs by IV injection of E. coli endotoxin. Survival of control animals which received glucose and volume replacement was 18%d while for those treated with FDP it was 90%.
FIG. 5 is a diagram showing the intestinal fluid loss and urine output of dogs subjected to endotoxin shock. Seven dogs were treated with equimolar FDP and eight received glucose. All animals received fluid supportive therapy (150 ml. of Rheomacrodex and 300 cc. of Lactate Ringer).
Seven were treated with FDP and the controls (8) received equimolar glucose.

[4] = system: dogs subjected to toxic doses of Digoxin; assay: digoxin toxicity in dogs; format: in vivo, dog; details: for hemodynamic parameters (cardiac output, arterial pressure): dog, in vivo
Experimental: Dogs subjected to toxic doses of Digoxin were treated with FDP and glucose. […] Also the dogs treated with FDP survived, while the controls treated with Dextrose 5% died within 3 hours after administration of Digoxin. In this paired study 10 anesthesized dogs received 3 mg. IV Digoxin as bolus injection. Five of the digs received 20 minutes after the digoxin injection 1 gm. of FDP and then on 2 mg/kg as a constant infusion for the next 3 hours. The five controls received in the same manner Dextrose 5%. […] (Pi<0.001.).

[5] = system: fluid deprived dogs after endotoxin; assay: endotoxin shock in fluid deprived dogs (1 mg/kg endotoxin); format: in vivo, dog; details: no fluid given; three pairs
Source text: In three pairs no fluid was given except for the FDP and glucose.

## O=C[C@H](O)[C@@H](O)[C@H](O)[C@H](O)CO [glucose, reference compound]
[1]
  survival: died
[2]; 15 minutes after reperfusion
  ML to LVEDP of 20 mmHg: 23.3 ± 1.8 mL
  Peak Effective pressure: 36.9 ± 4.4 mmHg
  Peak Mean pressure: 17.8 ± 4.2 mmHg
  Peak dp/dt: 1126 ± 216 mmHg/sec
[2]; 30 minutes after reperfusion
  ML to LVEDP of 20 mmHg: 19.3 ± 1.3 mL
  Peak Effective pressure: 50.8 ± 6.3 mmHg
  Peak Mean pressure: 20.5 ± 2.9 mmHg
  Peak dp/dt: 1698 ± 350 mmHg/sec
[2]; Pre-Ischemia
  ML to LVEDP of 20 mmHg: 51.4 ± 8.6 mL
  Peak Effective pressure: 144.6 ± 14.6 mmHg
  Peak Mean pressure: 66.4 ± 7.4 mmHg
  Peak dp/dt: 4894 ± 689 mmHg/sec
erythrocytes; equimolar, same conditions
  ATP content in the erythrocytes: failed to increase the ATP content
[3]; dog, in vivo
  blood in the fluid lost from the intestine: In all controls there was blood in the fluid lost from the intestine
  survival: 18%
[4]; after administration of Digoxin
  time to death: ≤ 3 h
[4]
  hemodynamic parameters (cardiac output, arterial pressure): decline in arterial pressure, vomiting, and perfused diarrhea
[5]
  time to death: 21/2

## O=C(COP(=O)(O)O)[C@@H](O)[C@H](O)[C@H](O)COP(=O)(O)O [FDP, fructose-1,6-diphosphate]
[1]
  survival: survived
[2]; 15 minutes after reperfusion
  ML to LVEDP of 20 mmHg: 33.6 ± 3.7 mL
  Peak Effective pressure: 102.1 ± 11.5 mmHg
  Peak Mean pressure: 52.8 ± 5.4 mmHg
  Peak dp/dt: 2242 ± 226 mmHg/sec
[2]; 30 minutes after reperfusion
  ML to LVEDP of 20 mmHg: 36.1 ± 3.3 mL
  Peak Effective pressure: 125 ± 11.5 mmHg
  Peak Mean pressure: 61.4 ± 5.1 mmHg
  Peak dp/dt: 3999 ± 404 mmHg/sec
[2]; Intra-aortic and systemic administration
  contractility and compliance during recovery: Both contractility and compliance are vastly improved
[2]; Pre-Ischemia
  ML to LVEDP of 20 mmHg: 39.3 ± 3.2 mL
  Peak Effective pressure: 165 ± 12.9 mmHg
  Peak Mean pressure: 77.5 ± 4.6 mmHg
  Peak dp/dt: 4710 ± 689 mmHg/sec
erythrocytes
  ATP and 2-3 DPG in the erythrocytes: substantial increase of ATP and 2-3 DPG in the erythrocytes
erythrocytes; 5% FDP
  ATP and 2-3 DPG content in erythrocytes: large increase in their ATP and 2-3 DPG content
[3]; dog, in vivo
  Urinary output: 276±98 ml/6 hours
  blood in the fluid lost from the intestine: no blood was observed; also recorded: no blood was noted
  intestinal fluid loss: 285±36 ml/6 hours
  stomach and intestine mucosa findings: only some vascular congestion was noted
  survival: 90%
[3]; lethal doses of endotoxin
  death, intestinal hemorrhage and fluid loss, renal function, mucosal necrosis: prevents death, intestinal hemorrhage and fluid loss, conserves normal renal function and protects the mucosa of the stomach and intestine from hemorrhagic necrosis
[4]; 3 mg. IV Digoxin
  survival: survived
[4]; 3 mg. IV Digoxin, FDP 1 gm. then 2 mg/kg infusion for 3 hours
  digitalis induced dysarhythmia: suppresses significantly the digitalis induced dysarhythmia
[4]; P < 0.001
  occurrence of dysarhythmia versus controls, significance: significantly less in the group treated with FDP
[4]
  hemodynamic parameters (cardiac output, arterial pressure): no alternation in hemodynamic parameters
[5]
  survival: survived and are still living (five months after the experiment)
